Laboratory results from the supplement of paper PMC10307832.

Legend:
Assay in all cases: relative viability (nuclei count vs DMSO), 5 days (fraction); higher = more cells survive
KN-93 = compound: CN(C/C=C/C1=CC=C(C=C1)Cl)CC2=CC=CC=C2N(CCO)S(=O)(=O)C3=CC=C(C=C3)OC [KN-93]
How it was run: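 Lung cancer cell lines in 1536-well plates were kept overnight at 37 °C, then pinned with five library-drug doses (not always all listed) spaced by √10 on vehicle-anchored plates. After 5 days without medium change, cells were fixed, permeabilised and Hoechst-stained in one step, imaged at 4×, and nuclei were counted with MetaXpress. Viability is treated-well nuclei divided by vehicle-well nuclei, taken as the median over plates. Plates passed only with control CV below 25% and at least one doubling.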

KN-93 + Luminespib = compound: CN(C/C=C/C1=CC=C(C=C1)Cl)CC2=CC=CC=C2N(CCO)S(=O)(=O)C3=CC=C(C=C3)OC [KN-93] + CCNC(=O)c1noc(-c2cc(C(C)C)c(O)cc2O)c1-c1ccc(CN2CCOCC2)cc1 [Luminespib] (partner 0.01 µM)
How it was run: (§1)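 Dosing by pin tool came one day after lung cancer cell lines were seeded in 1536-well plates, using either one drug or a fixed anchor-drug dose plus five library-drug doses (not always all listed) in √10 steps. After 5 days, nuclei were counted on 4× images. Relative viability is treated-well nuclei count divided by vehicle-well nuclei count, and values are medians of duplicate plates.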

KN-93 + Crizotinib = compound: CN(C/C=C/C1=CC=C(C=C1)Cl)CC2=CC=CC=C2N(CCO)S(=O)(=O)C3=CC=C(C=C3)OC [KN-93] + C[C@@H](Oc1cc(-c2cnn(C3CCNCC3)c2)cnc1N)c1c(Cl)ccc(F)c1Cl [Crizotinib] (partner 1 µM)
How it was run: as §1

KN-93 + Linsitinib = compound: CN(C/C=C/C1=CC=C(C=C1)Cl)CC2=CC=CC=C2N(CCO)S(=O)(=O)C3=CC=C(C=C3)OC [KN-93] + C[C@]1(O)C[C@@H](c2nc(-c3ccc4ccc(-c5ccccc5)nc4c3)c3c(N)nccn32)C1 [Linsitinib] (partner 1 µM)
How it was run: as §1

KN-93 + Vorinostat = compound: CN(C/C=C/C1=CC=C(C=C1)Cl)CC2=CC=CC=C2N(CCO)S(=O)(=O)C3=CC=C(C=C3)OC [KN-93] + O=C(CCCCCCC(=O)Nc1ccccc1)NO [Vorinostat] (partner 1 µM)
How it was run: as §1

Cell Line	relative viability (KN-93; 0.08 µM)	relative viability (KN-93; 0.253 µM)	relative viability (KN-93; 2.53 µM)	relative viability (KN-93; 8 µM)	relative viability (KN-93 + Luminespib; first compound 0.08 µM)	relative viability (KN-93 + Luminespib; first compound 0.253 µM)	relative viability (KN-93 + Luminespib; first compound 2.53 µM)	relative viability (KN-93 + Luminespib; first compound 8 µM)	relative viability (KN-93 + Crizotinib; first compound 0.08 µM)	relative viability (KN-93 + Crizotinib; first compound 0.253 µM)	relative viability (KN-93 + Crizotinib; first compound 2.53 µM)	relative viability (KN-93 + Crizotinib; first compound 8 µM)	relative viability (KN-93 + Linsitinib; first compound 0.08 µM)	relative viability (KN-93 + Linsitinib; first compound 0.253 µM)	relative viability (KN-93 + Linsitinib; first compound 2.53 µM)	relative viability (KN-93 + Linsitinib; first compound 8 µM)	relative viability (KN-93 + Vorinostat; first compound 0.08 µM)	relative viability (KN-93 + Vorinostat; first compound 0.253 µM)	relative viability (KN-93 + Vorinostat; first compound 2.53 µM)	relative viability (KN-93 + Vorinostat; first compound 8 µM)
LOU-NH91	0.988	0.834	0.963	0.842	0.399	0.353	0.331	0.321	0.746	0.716	0.75	0.703	0.926	0.856	0.931	0.791	0.957	0.835	0.903	0.8
LU99A	0.953	0.951	1.01	0.74	0.222	0.23	0.327	0.246	0.529	0.703	0.566	0.504	0.535	0.541	0.497	0.461	0.282	0.48	0.535	0.343
LXF-289	0.942	1.07	1.02	0.828	0.536	0.833	0.787	0.588	0.782	0.913	0.825	0.532	0.963	1	0.964	0.652	0.661	0.839	0.716	0.546
NCI-H23	0.997	1.18	1.02	0.56	0.227	0.185	0.199	0.212	0.446	0.54	0.574	0.534	0.522	0.617	0.659	0.53	0.596	0.626	0.543	0.258
NCI-H322M	0.872	0.941	0.959	0.768	0.921	0.793	0.954	0.752	1.08	0.982	0.896	0.905	0.988	0.935	0.958	0.803	0.917	0.836	0.826	0.782
NCI-H358	0.834	1.04	0.916	0.539	0.289	0.53	0.273	0.266	0.565	0.568	0.519	0.426	0.631	0.81	0.634	0.353	0.659	0.79	0.824	0.459
NCI-H441	0.709	1.14	1.3	0.731	0.295	0.417	0.36	0.287	0.716	0.879	0.76	0.565	0.48	0.818	0.799	0.245	–	1.06	0.864	0.498
NCI-H460	0.821	1.06	1.03	0.652	0.0407	0.0268	0.0273	0.0309	0.387	0.985	1.33	0.449	0.466	1.14	0.805	0.375	0.308	0.618	1.08	0.485
NCI-H520	0.91	1.05	1.14	0.815	0.246	0.212	0.281	0.224	–	1.08	0.759	0.586	–	1.21	1.12	0.682	0.619	0.906	0.831	0.58
NCI-H596	0.913	1.15	0.941	0.5	0.924	1.34	1.21	0.789	0.906	1.09	1.03	0.691	1	1.19	1.03	0.89	0.654	0.528	0.656	0.324
NCI-H647	0.985	1.25	1.01	0.813	0.168	0.145	0.13	0.109	0.916	1.48	1.13	0.511	1.33	1.5	1.65	0.952	0.532	0.853	0.601	0.323
NCI-H650	1.01	1.1	1.11	0.598	0.697	0.76	0.855	0.579	0.866	0.735	0.772	0.488	0.893	0.836	1.21	0.562	0.495	0.422	0.544	0.346
NCI-H661	0.938	1.02	0.968	0.583	0.896	1.06	0.851	0.542	0.855	0.875	0.988	0.761	0.502	0.531	0.433	0.562	0.703	0.923	0.641	0.535
NCI-H727	1.03	0.833	1.02	0.649	0.367	0.326	0.351	0.376	0.667	1	0.637	0.429	0.292	0.223	0.256	0.223	1.05	–	1.3	1.01
NCI-H838	0.935	0.883	1.02	0.908	0.306	0.268	0.197	0.223	0.764	0.86	0.94	0.7	0.989	0.905	1.15	0.771	0.738	0.62	0.663	0.592
